Measured values: patent US5182386A (priority 1991, dated 1993)

Experiments:
GABAa receptor = GABAa receptor (benzodiazepine site) binding, displacement of 3H-RO15-1788 [3H-Flumazenil]; conditions: rat cortical tissue; 0.5 nM 3H-RO15-1788; 30 min at 4° C.
Experimental: Assays are carried out as described in Thomas and Tallman (J. Bio. Chem. 156: 9838-9842, J. Neurosci. 3:433-440, 1983). Rat cortical tissue is dissected and homogenized in 25 volumes (w/v) of 0.05M Tris HCl buffer (pH 7.4 at 4° C.). The tissue homogenate is centrifuged in the cold (4° ) at 20,000×g for 20'. The supernatant is decanted and the pellet is rehomogenized in the same volume of buffer and again centrifuged at 20,000×g. The supernatant is decanted and the pellet is frozen at -20° C. overnight. The pellet is then thawed and rehomogenized in 25 volume (original wt/vol) of buffer and the procedure is carried out twice. The pellet is finally resuspended in 50 volumes (w/vol of 0.05M Tris HCl buffer (pH 7.4 at […]).
Incubations contain […] of tissue homogenate, […] of radioligand 0.5 nM (^3 H-RO15-1788 [^3 H-Flumazenil] specific activity 80 Ci/mmol), drug or blocker and buffer to a total volume of […]. Incubations are carried for 30 min at 4° C. then are rapidly filtered through GFB filters to separate free and bound ligand. Filters are washed twice with fresh 0.05M Tris HCl buffer (pH 7.4 at 4° C. ) and counted in a liquid scintillation counter. […] diazepam is added to some tubes to determine nonspecific binding. Data are collected in triplicate determinations, averaged and % inhibition of total specific binding is calculated. Total Specific Binding=Total-Nonspecific. In some cases, the amounts of unlabeled drugs is varied and total displacement curves of binding are carried out. Data are converted to a form for the calculation of IC50 and Hill Coefficient (nH).

GABA receptor = conditions: Tallman et al., 1978; cited from earlier work

IC50 (GABAa receptor) | SMILES | block of enhancement of benzodiazepine binding by GABA agonists (GABA receptor)
 | CN1CCc2cc3c(cc2C1C1OC(=O)c2c1ccc1c2OCO1)OCO3 (single isomer, unassigned; (-)) [(-) bicuculline] | much less active
33 nM | COc1ccc(-c2nc3c[nH]c4ccccc4n-3c2=O)cc1 [Compound 1, 2-(4-methoxyphenyl)-imidazo-[1,2-a]-quinoxalin-1(5H)-one] | 
70 nM | COc1cccc(-c2nc3c[nH]c4ccccc4n-3c2=O)c1 [Compound 3, 2-(3-Methoxyphenyl)-imidazo-[1,2-a]-quinoxalin-1(5H)-one] | 
 | CN1CCc2cc3c(cc2C1C1OC(=O)c2c1ccc1c2OCO1)OCO3 (single isomer, unassigned; (+)) [(+) bicuculline] | blocked

SMILES | IC50 (GABAa receptor) | block of enhancement of benzodiazepine binding by GABA agonists (GABA receptor)
O=c1c(-c2ccccc2)nc2c[nH]c3ccccc3n1-2 [Compound 2, 2-Phenyl-imidazo-[1,2-a]-quinoxalin-1(5H)-one] | 33 nM | 
